According to ChEMBL document CHEMBL4823324, “Discovery of BMS-986318, a Potent Nonbile Acid FXR Agonist for the Treatment of Nonalcoholic Steatohepatitis” (ACS Med Chem Lett, 2021):

What was measured:
[1] = Clearance in C57B6 mouse at 1 mg/kg, iv; type: ADME, organism-based; conditions: in vivo
[2] = molecular target: T1, Nuclear receptor ROR-alpha (Homo sapiens, UniProt P35398); assay: Agonist activity at human RORalpha (272 to 557 residues) co-expressed with Gal4-luciferase reporter in human Jurkat cells incubated for 18 hrs by Steady-Glo luciferase reporter based luminescence analysis; type: cell-based
T1 sequence (P35398 whole entry): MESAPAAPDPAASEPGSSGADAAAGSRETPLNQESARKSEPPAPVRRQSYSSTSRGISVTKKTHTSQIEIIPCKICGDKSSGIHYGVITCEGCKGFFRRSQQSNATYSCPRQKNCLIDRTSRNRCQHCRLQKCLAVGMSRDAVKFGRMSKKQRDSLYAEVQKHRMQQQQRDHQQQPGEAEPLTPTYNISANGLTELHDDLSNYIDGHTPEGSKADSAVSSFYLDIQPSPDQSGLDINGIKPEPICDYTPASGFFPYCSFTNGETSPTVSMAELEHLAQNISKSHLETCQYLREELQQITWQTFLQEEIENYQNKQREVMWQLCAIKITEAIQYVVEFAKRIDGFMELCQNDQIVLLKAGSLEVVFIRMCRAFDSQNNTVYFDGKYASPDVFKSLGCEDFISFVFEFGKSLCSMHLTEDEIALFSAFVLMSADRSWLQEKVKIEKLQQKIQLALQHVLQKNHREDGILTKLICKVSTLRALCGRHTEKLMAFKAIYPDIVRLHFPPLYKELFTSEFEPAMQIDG

Androgen receptor = molecular target: T2, Androgen receptor (Homo sapiens, UniProt P10275); assay: Activation of androgen receptor (unknown origin) by fluorescence polarization based competition assay
T2 sequence (P10275 whole entry): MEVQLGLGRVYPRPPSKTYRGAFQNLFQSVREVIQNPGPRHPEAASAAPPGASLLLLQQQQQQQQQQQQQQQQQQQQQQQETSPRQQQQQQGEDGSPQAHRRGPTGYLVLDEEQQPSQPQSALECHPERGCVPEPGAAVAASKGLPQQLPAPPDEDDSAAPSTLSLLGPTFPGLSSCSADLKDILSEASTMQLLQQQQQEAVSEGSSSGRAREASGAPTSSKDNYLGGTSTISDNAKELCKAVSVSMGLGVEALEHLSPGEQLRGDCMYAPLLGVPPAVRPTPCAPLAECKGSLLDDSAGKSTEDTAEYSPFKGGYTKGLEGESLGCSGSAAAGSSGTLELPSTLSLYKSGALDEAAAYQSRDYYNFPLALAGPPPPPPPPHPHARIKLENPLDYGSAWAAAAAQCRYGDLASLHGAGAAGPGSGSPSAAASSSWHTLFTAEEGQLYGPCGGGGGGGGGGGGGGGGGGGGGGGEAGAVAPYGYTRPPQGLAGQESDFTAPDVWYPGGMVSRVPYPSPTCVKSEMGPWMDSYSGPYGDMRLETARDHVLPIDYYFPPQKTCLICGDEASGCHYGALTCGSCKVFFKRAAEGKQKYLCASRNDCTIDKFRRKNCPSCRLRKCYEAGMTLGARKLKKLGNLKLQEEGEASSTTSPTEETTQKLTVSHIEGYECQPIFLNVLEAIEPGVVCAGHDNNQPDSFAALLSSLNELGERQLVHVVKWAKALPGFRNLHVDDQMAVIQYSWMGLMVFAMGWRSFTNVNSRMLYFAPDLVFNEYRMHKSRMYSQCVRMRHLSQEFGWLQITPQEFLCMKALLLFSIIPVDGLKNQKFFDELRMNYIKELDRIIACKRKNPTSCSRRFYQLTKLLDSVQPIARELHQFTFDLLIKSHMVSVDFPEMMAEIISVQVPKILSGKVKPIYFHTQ

[3] = Oral bioavailability in C57B6 mouse at 2 mg/kg administered as solution; type: ADME, organism-based; conditions: in vivo
[4] = Plasma concentration in mouse at 3 mg/kg, po measured after 6 hrs; type: ADME, organism-based
[5] = Cmax in C57B6 mouse at 2 mg/kg, po administered as suspension; type: ADME, organism-based; set-up: route oral, dose 2 mg/kg; conditions: in vivo
[6] = Cmax in C57B6 mouse at 2 mg/kg, po administered as solution; type: ADME, organism-based; set-up: route oral, dose 2 mg/kg; conditions: in vivo
[7] = Metabolic stability in human liver microsomes assessed as half life; type: ADME, Microsome
[8] = Oral bioavailability in C57B6 mouse at 2 mg/kg administered as suspension; type: ADME, organism-based; conditions: in vivo
[9] = AUC in C57B6 mouse at 2 mg/kg, po administered as suspension; type: ADME, organism-based; set-up: dose 2 mg/kg; conditions: in vivo
[10] = molecular target: T3, Peroxisome proliferator-activated receptor gamma (Homo sapiens, UniProt P37231); assay: Activation of PPARgamma LBD (unknown origin) co-expressed with Gal4UAS-luciferase reporter in HEK293 cells incubated for 24 hrs by Steady-Glo luciferase reporter gene based luminescence analysis; type: cell-based
T3 sequence (P37231 whole entry): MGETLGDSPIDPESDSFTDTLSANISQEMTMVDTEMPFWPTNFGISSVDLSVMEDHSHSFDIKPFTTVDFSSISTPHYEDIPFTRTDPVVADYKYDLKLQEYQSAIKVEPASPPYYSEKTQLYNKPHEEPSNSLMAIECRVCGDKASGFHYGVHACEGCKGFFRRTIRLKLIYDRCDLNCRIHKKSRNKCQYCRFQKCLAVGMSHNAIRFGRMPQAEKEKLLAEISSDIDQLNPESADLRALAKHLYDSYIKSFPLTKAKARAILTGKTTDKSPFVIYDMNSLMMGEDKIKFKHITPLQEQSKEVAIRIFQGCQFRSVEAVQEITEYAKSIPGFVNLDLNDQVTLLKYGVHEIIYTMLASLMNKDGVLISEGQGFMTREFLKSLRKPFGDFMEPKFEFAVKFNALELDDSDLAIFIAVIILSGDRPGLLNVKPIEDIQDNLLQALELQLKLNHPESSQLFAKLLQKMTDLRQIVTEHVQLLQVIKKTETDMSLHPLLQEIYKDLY

[11] = Half life in C57B6 mouse at 2 mg/kg, po administered as suspension; type: ADME, organism-based; conditions: in vivo
[12] = Metabolic stability in mouse liver microsomes assessed as half life; type: ADME, Microsome
[13] = molecular target: T4, Peroxisome proliferator-activated receptor delta (Homo sapiens, UniProt Q03181); assay: Activation of PPARdelta LBD (unknown origin) co-expressed with Gal4UAS-luciferase reporter in HEK293 cells incubated for 24 hrs by Steady-Glo luciferase reporter gene based luminescence analysis; type: cell-based
T4 sequence (Q03181 whole entry): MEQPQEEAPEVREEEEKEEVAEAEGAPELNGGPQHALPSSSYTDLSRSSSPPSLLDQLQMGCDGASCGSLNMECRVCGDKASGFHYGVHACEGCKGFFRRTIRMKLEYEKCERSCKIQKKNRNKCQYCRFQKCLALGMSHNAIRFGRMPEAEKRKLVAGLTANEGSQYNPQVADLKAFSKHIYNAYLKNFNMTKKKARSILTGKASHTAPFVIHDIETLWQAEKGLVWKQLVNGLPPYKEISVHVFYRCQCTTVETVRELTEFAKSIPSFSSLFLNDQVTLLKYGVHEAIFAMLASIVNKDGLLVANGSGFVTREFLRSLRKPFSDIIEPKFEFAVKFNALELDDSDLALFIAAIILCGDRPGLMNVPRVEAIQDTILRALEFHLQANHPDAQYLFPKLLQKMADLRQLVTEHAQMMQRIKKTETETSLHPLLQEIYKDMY

clearance [1]: 3.8 mL/min/kg
EC50 [2]: > 40 µM
EC50 (Androgen receptor): > 40 µM
bioavailability [3]: 36%
concentration at 6 h [4]: 37 nM
Cmax [5]: 1030 nM
Cmax [6]: 1220 nM
half-life [7]: > 2 h
bioavailability [8]: 26%
AUC [9]: 4.76 µM·h
EC50 [10]: > 40 µM
half-life [11]: 2 h
half-life [12]: > 2 h
EC50 [13]: > 40 µM
Compound: O=C(O)c1cc(C(F)(F)F)c2cc(N3CCC4(C=C(c5c(-c6c(Cl)cncc6Cl)noc5C5CC5)C4)CC3)ccc2n1
